Results reported in patent US8710233B2 (Gruenenthal GmbH, priority 2005, dated 2014).
Where two headings read alike, the source gives them in different places.

How the values were obtained:
[1] = target: T1, vanilloid receptor 1 (VR1/TRPV1) of the rat species (Rattus norvegicus, UniProt O35433); assay: FLIPR Ca2+ influx assay on rat dorsal root ganglia cells (pharmacological method I); type: cell-based; conditions: table 4, capsaicin
T1 construct: The spinal column is removed from decapitated rats; from tissue; host or cells: primary cells dissociated from rat dorsal root ganglia
T1 sequence (O35433 whole entry): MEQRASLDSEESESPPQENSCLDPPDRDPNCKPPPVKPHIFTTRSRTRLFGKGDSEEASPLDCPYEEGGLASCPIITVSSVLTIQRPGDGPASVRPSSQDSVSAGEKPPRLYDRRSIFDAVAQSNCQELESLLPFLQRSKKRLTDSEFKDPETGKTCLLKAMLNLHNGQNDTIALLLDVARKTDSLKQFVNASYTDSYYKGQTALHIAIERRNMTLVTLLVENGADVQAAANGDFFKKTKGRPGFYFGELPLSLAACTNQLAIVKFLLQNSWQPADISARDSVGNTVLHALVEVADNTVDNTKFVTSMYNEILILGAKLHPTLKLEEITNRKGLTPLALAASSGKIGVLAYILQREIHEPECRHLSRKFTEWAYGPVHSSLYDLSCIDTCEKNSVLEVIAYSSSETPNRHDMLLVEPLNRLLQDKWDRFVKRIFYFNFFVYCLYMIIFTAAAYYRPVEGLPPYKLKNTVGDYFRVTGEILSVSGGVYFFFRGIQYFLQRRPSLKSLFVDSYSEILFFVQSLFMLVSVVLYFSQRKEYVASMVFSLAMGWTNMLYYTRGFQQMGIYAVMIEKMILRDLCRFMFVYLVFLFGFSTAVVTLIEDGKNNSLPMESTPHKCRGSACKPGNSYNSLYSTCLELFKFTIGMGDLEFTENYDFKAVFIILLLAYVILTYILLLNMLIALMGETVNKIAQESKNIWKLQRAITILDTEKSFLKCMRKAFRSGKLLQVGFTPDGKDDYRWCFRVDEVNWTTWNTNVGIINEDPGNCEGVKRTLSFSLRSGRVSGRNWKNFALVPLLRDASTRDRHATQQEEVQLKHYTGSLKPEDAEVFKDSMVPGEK
In short: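 Primary rat dorsal root ganglion cells loaded with 2 μM Fluo-4, Ca2+ influx read on FLIPR as peak fluorescence. Triplicates, at least 3 independent experiments.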

vanilloid receptor (VR1) = target: T2, vanilloid receptor (VR1) (Homo sapiens, UniProt Q8NER1); assay: FLIPR Ca2+ influx assay on CHO K1 cells transfected with the VR1 gene (pharmacological method II); type: cell-based; conditions: table 4; capsaicin; read-out: Ki (human) Cap.
T2 construct: expressed in transfected cells; host or cells: CHO K1 cells (ECACC), stably transfected
T2 sequence (Q8NER1 whole entry): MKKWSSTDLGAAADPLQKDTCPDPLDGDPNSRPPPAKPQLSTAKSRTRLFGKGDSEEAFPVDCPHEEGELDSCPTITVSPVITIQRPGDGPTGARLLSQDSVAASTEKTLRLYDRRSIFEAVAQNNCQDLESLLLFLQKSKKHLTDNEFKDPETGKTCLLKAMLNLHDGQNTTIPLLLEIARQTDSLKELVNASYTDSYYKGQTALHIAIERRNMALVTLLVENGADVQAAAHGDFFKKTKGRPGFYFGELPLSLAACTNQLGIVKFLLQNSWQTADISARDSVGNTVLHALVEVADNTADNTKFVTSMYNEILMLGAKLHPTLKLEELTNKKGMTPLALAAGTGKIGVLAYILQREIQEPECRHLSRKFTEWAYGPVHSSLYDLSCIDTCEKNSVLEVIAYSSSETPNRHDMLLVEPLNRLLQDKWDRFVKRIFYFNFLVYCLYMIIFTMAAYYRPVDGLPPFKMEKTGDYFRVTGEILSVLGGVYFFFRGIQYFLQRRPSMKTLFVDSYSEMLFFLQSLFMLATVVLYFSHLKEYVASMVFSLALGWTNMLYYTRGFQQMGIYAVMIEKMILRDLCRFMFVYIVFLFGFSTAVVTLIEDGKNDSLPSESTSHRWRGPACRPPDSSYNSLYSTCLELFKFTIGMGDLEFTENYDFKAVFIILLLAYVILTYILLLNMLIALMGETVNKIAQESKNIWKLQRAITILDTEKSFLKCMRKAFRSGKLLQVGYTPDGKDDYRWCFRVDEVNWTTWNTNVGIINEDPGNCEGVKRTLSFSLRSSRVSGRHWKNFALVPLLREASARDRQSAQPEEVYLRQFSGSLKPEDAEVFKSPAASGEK

VR1/TRPV1 receptor = VR1/TRPV1 receptor (Homo sapiens, UniProt Q8NER1); assay: IC50 (human) after pH stimulus; type: cell-based; conditions: for IC50: table 4
Chain of VR1/TRPV1 receptor (Q8NER1 whole entry): as above

[2] = system: capsaicin induced hypothermie; assay: Hypothermie assay in the mouse (capsaicin induced hypothermie); type: in vivo; conditions: mouse, read-out: inhibition hypothermie (n = 5); for inhibition in vivo at 0.3 mg/kg: 0.3 mg/kg body weight po
Description: V. Hypothermie Assay an der Maus
Male NMRI mice (weight 25-35 gram, supplier IFFA CREDO, Bruxelles, Belgium) are used in the hypothermie assay. The animals are kept under standardized conditions: light/darkness interval (6:00 to 18:00 light; 18:00 to 6:00 Uhr darkness), room temperature 19-22° C., relative humidity 35-70%, 15 times per hour change of compartment air, airflow <0.2 m/sec. The animals were fed on a standardized diet (ssniff diet, ssniff Spezialdiäten GmbH, Soest, Germany) and tap water. Water and diet were detracted during the experiment. All animals were used once in the experiment. The animals were allowed to adapt to the experimental conditions for at least 5 days.
The acute application of capsaicin (VR-1 agonist) leads to a decrease of the core body temperature in rat and mice via stimulation of heat sensors. Only compounds which act as specific VR-1-receptor antagonists can antagonize the capsaicin induced hypothermie. In contrast, morphine induced hypothermie is not antagonized by VR-1 antagonists. Thus, this experiment is suitable for the determination of compounds that act as VR1-antagonists via their effect on the core body temperature.
For the determination of the core body temperature a digital thermometer was used (Thermalert TH-5, physitemp, Clifton N.J., USA). The measuring head was inserted into the rectum.
The individual basis value is determined by measuring the body temperature twice in an interval of about half an hour. […] […] The test compound is given 10 min (i.v.) or 15 min (p.o.), respectively, before application of capsaicin. The body temperature is determined 7.5/15 and 30 min after application of capsaicin (i.v.+i.p.) or 15/30/60/90/120 min after application of capsaicin (p.o.+i.p.), respectively. In addition, another group of mice is only given the test compound or a vehicle control.
The measuring points are given as average values±S.E.M. of the absolute values. The antagonistic effect is given in percent of inhibition of capsaicin induced hypothermie.

Ki ([1]; read-out: Ki (rat) Cap.) [nM] | Ki (vanilloid receptor (VR1)) [nM] | IC50 (VR1/TRPV1 receptor) [nM] | inhibition at 10 µM (VR1/TRPV1 receptor; @ 10 μM, read-out: inhibition in percent, IC50 (human) after pH stimulus) [%] | inhibition at 1 µM (VR1/TRPV1 receptor; @ 1 μM, ne = no effect, read-out: inhibition in percent, IC50 (human) after pH stimulus) [%] | Structure (SMILES) | inhibition in vivo at 0.3 mg/kg [2] [%] | Ki ([1]; Ki (rat) Cap.) [nM] | inhibition in vivo at 3 mg/kg ([2]; 3 mg/kg body weight po) [%]
0.6 | 0.7 | 40.4 | – | – | CCCCSc1nc(C(F)(F)F)ccc1CNC(=O)C(C)c1ccc(NS(C)(=O)=O)c(F)c1 (stereo not shown) [Example 122] | 33 | – | –
0.9 | 0.3 | 12.1 | – | – | CC(C(=O)NCc1ccc(C(F)(F)F)nc1N1CC=CCC1)c1ccc(NS(C)(=O)=O)c(F)c1 (stereo not shown) [Example 139, 2-(3-fluoro-4-methylsulfonamido-phenyl)-N-(6′-trifluoromethyl-3,6-dihydro-2H-[1,2′]bipyridinyl-3′-ylmethyl)-propionamide] | 43 | – | –
0.4 | 0.3 | 5.9 | – | – | CC1CCN(c2nc(C(F)(F)Cl)ccc2CNC(=O)C(C)c2ccc(NS(C)(=O)=O)c(F)c2)CC1 (stereo not shown) [Example 131] | 26 | – | –
5.8 | 13.2 | – | 56 | – | C[C@@H](C(=O)NCc1ccc(C(F)(F)F)nc1-c1ccc(F)c(Cl)c1)c1ccc(NS(C)(=O)=O)c(F)c1 [Example 121, (R)-N-[2-(3-chloro-4-fluoro-phenyl)-6-trifluoromethyl-pyridin-3-ylmethyl]-2-(3-fluoro-4-methylsulfonamido-phenyl)-propionamide] | 12 | – | –
5 | 5 | 192 | – | – | CC(C(=O)NCc1ccc(C(F)(F)F)nc1N1Cc2ccccc2C1)c1ccc(NS(C)(=O)=O)c(F)c1 (stereo not shown) [Example 188, N-[2-(1,3-dihydro-isoindol-2-yl)-6-trifluoromethyl-pyridin-3-ylmethyl]-2-(3-fluoro-4-methylsulfonamido-phenyl)-propionamide] | 0 | – | –
1.9 | 2.5 | 44.5 | – | – | COc1ccc(N2CCN(c3nc(C(F)(F)F)ccc3CNC(=O)C(C)c3ccc(NS(C)(=O)=O)c(F)c3)CC2)cc1 (stereo not shown) [Example 221, 2-(3-fluoro-4-methylsulfonamido-phenyl)-N-{2-[4-(4-methoxy-phenyl)-piperazin-1-yl]-6-trifluoromethyl-pyridin-3-ylmethyl}-propionamide] | 18 | – | –
2.6 | 1.7 | 135 | – | – | C[C@@H](C(=O)NCc1ccc(C(F)(F)F)cc1N1CCCCC1)c1ccc(NS(C)(=O)=O)c(F)c1 [Example 32, (R)-2-(3-fluoro-4-(methylsulfonamido)phenyl)-N-(2-(piperidin-1-yl)-4-(trifluoromethyl)benzyl)propanamide] | 55 | – | –
0.4 | 0.3 | 5.1 | – | – | CC(C(=O)NCc1ccc(C(F)(F)F)nc1OCC1CC1C)c1ccc(NS(C)(=O)=O)c(F)c1 (stereo not shown) [Example 124, 2-(3-fluoro-4-methylsulfonamido-phenyl)-N-[2-(2-methyl-cyclopropylmethoxy)-6-trifluoromethyl-pyridin-3-ylmethyl]-propionamide] | 39 | – | –
0.7 | – | 14.7 | – | – | CC(C(=O)NCc1ccc(C(F)(F)Cl)nc1N1CCCCCC1)c1ccc(NS(C)(=O)=O)c(F)c1 (stereo not shown) [Example 132, N-[2-azepan-1-yl-6-(chloro-difluoro-methyl)-pyridin-3-ylmethyl]-2-(3-fluoro-4-methylsulfonamido-phenyl)-propionamide] | 0 | – | –
0.5 | 0.7 | 27.3 | – | – | CCCCCOc1nc(C(F)(F)F)ccc1CNC(=O)C(C)c1ccc(NS(C)(=O)=O)c(F)c1 (stereo not shown) [Example 225, 2-(3-fluoro-4-methylsulfonamido-phenyl)-N-(2-pentyloxy-6-trifluoromethyl-pyridin-3-ylmethyl)-propionamide] | 20 | – | –
0.8 | 0.2 | 14.7 | – | – | CCCN(CCC)c1nc(C(F)(F)F)ccc1CNC(=O)C(C)c1ccc(NS(C)(=O)=O)c(F)c1 (stereo not shown) [Example 16, N-((2-(dipropylamino)-6-(trifluoromethyl)pyridin-3-yl)methyl)-2-(3-fluoro-4-(methylsulfonamido)phenyl)propanamide] | 12 | – | –
3.8 | 4.1 | – | – | 21 | CC(C(=O)NCc1ccc(C(F)(F)F)nc1N1CCN(c2ncccc2Cl)CC1C)c1ccc(NS(C)(=O)=O)c(F)c1 (stereo not shown) [Example 194, N-{2-[4-(3-chloro-pyridin-2-yl)-2-methyl-piperazin-1-yl]-6-trifluoromethyl-pyridin-3-ylmethyl}-2-(3-fluoro-4-methylsulfonamido-phenyl)-propionamide] | 14 | – | –
1 | 0.7 | 10.4 | – | – | CC(C(=O)NCc1ccc(C(F)(F)F)nc1-c1ccc(Cl)cc1)c1ccc(NS(C)(=O)=O)c(F)c1 (stereo not shown) [Example 147, N-[2-(4-chloro-phenyl)-6-trifluoromethyl-pyridin-3-ylmethyl]-2-(3-fluoro-4-methylsulfonamido-phenyl)-propionamide] | 3 | – | –
63.1 | 59.6 | 1400 | – | – | CC(C(=O)NCc1ccc(C(F)(F)F)nc1Nc1ccccc1)c1ccc(NS(C)(=O)=O)c(F)c1 (stereo not shown) [Example 110, 2-(3-fluoro-4-methylsulfonamido-phenyl)-N-(2-phenylamino-6-trifluoromethyl-pyridin-3-ylmethyl)-propionamide] | 13 | – | –
1.2 | 0.5 | 19.8 | – | – | CC(C(=O)NCc1ccc(C(F)(F)F)nc1N1CCC(F)CC1)c1ccc(NS(C)(=O)=O)c(F)c1 (stereo not shown) [Example 138, 2-(3-fluoro-4-methylsulfonamido-phenyl)-N-(4-fluoro-6′-trifluoromethyl-3,4,5,6-tetrahydro-2H-[1,2′]bipyridinyl-3′-ylmethyl)-propionamide] | 0 | – | –
0.2 | 0.9 | 34.9 | – | – | CC(C(=O)NCc1ccc(C(F)(F)F)cc1OCc1ccccc1)c1ccc(NS(C)(=O)=O)c(F)c1 (stereo not shown) [Example 209, N-(2-benzyloxy-4-trifluoromethyl-benzyl)-2-(3-fluoro-4-methylsulfonamido-phenyl)-propionamide] | – | – | 46
– | 0.8 | 43.7 | – | – | COc1cccc(COc2nc(C(F)(F)F)ccc2CNC(=O)C(C)c2ccc(NS(C)(=O)=O)c(F)c2)c1 (stereo not shown) [Example 107, 2-(3-fluoro-4-methylsulfonamido-phenyl)-N-[2-(3-methoxy-benzyloxy)-6-trifluoromethyl-pyridin-3-ylmethyl]-propionamide] | 21 | 1 | –
143 | – | 2570 | – | – | CC(C(=O)NCc1ccc(C(F)(F)F)nc1-n1ccnc1)c1ccc(NS(C)(=O)=O)c(F)c1 (stereo not shown) [Example 87, 2-(3-fluoro-4-methylsulfonamido-phenyl)-N-((6-(trifluoromethyl)-2-(1H-imidazol-1-yl)pyridin-3-yl)methyl)-propionamide] | 0 | – | –

Structure (SMILES) | Ki ([1]; read-out: Ki (rat) Cap.) [nM] | Ki (vanilloid receptor (VR1)) [nM] | IC50 (VR1/TRPV1 receptor) [nM] | inhibition at 10 µM (VR1/TRPV1 receptor; @ 10 μM, read-out: inhibition in percent, IC50 (human) after pH stimulus) [%] | inhibition at 1 µM (VR1/TRPV1 receptor; @ 1 μM, ne = no effect, read-out: inhibition in percent, IC50 (human) after pH stimulus) [%] | inhibition in vivo at 0.3 mg/kg [2] [%] | Ki ([1]; Ki (rat) Cap.) [nM] | inhibition in vivo at 3 mg/kg ([2]; 3 mg/kg body weight po) [%]
CCCCCCOc1nc(C(F)(F)F)ccc1CNC(=O)[C@@H](C)c1ccc(NS(C)(=O)=O)c(F)c1 [Example 93, (S)-2-(3-fluoro-4-methylsulfonamido-phenyl)-N-(2-hexyloxy-6-trifluoromethyl-pyridin-3-ylmethyl)-propionamide] | – | 0.4 | 12.3 | – | – | 4 | 0.2 | –
CC(C(=O)NCc1ccc(C(F)(F)F)nc1-c1ccc(F)cc1)c1ccc(NS(C)(=O)=O)c(F)c1 (stereo not shown) [Example 89] | 1.2 | 0.4 | 131 | – | – | 1 | – | –
CC(C)CCOc1nc(C(F)(F)F)ccc1CNC(=O)C(C)c1ccc(NS(C)(=O)=O)c(F)c1 (stereo not shown) [Example 123, 2-(3-fluoro-4-methylsulfonamido-phenyl)-N-[2-(3-methyl-butoxy)-6-trifluoromethyl-pyridin-3-ylmethyl]-propionamide] | 0.6 | 0.8 | 15.1 | – | – | 47 | – | –
